The assay concerns Sprague-Dawley rats. Description: Neurobehavioral testing of nerve block, cooling-triggered local anesthesia. In kind it is in vivo. To be noted: injected, 15 mg/mL in sterile saline. From the text:
Nile Red- or bupivacaine-loaded gels are implanted in adult Sprague-Dawley rats alongside a wireless temperature probe. Stability are characterized using dye-loaded formulations, with animals imaged daily to determine the extent to which the dye leaks from the gelled implant; quantitative data are derived from depletion of the Nile Red fluorescence signal. To characterize release, rats implanted with dye-loaded formulations are subjected to a cooling stimulus (ice applied to the skin while tissue temperature is remotely monitored), and subsequently imaged to determine the extent to which cooling triggers release of the sequestered compound in vivo as observed by decrease in the depot fluorescence intensity. Multiple cycles of cooling are performed (with a 24-hour recovery period between cycles) until no significant change in the fluorescence signal from the depot is observed. […] The difference between the duration of nerve blocks due to injection of bupivacaine solution and the duration of blocks caused by cooling-triggered release from an implanted device is determined. To investigate tissue response to the implanted devices, after the animals are sacrificed the tissue surrounding the sciatic nerve is removed, processed for histology (H&E staining), and analyzed via optical microscopy.

Turning to `CCCCN1CCCCC1C(=O)Nc1c(C)cccc1C` (stereo not shown) [bupivacaine], the “baseline nerve block duration” value is reported as roughly 200 min.

These data come from patent US20200113816A1, “REACTIONS TRIGGERED BY COOLING-INDUCED GEL-TO-SOL TRANSITION OF THERMORESPONSIVE POLYMERS” (Vanderbilt University, priority 2018, published 2020).
